Experiment [1] has as its system isoproterenol (ISO) induced heart failure in WT and Sirt3Ko mice. The experiment is described as follows: Isoproterenol (ISO) minipump induced heart failure, echocardiography and HW/TL. The experiment is classed as in vivo, mouse. As to conditions: 14 days of ISO, NR plus GW6471 4.5 mg/kg/day. The method, then: Minipump implantation. Pathologic hypertrophy was induced by treating male (3-4 months old) Sirt3ko and WT mice with isoproterenol (ISO) or vehicle for 14 days. Mice with and without GW6471(4.5 mg/kg/day) were treated with NR (500 mg/kg body weight IP daily) or vehicle starting at day one after mini-pump insertion. Briefly, an incision was made in the skin between the shoulder blades. A deep subcutaneous pocket was made caudal to the incision using blunt dissection. The sterile minipump (Alzet #2002) was inserted into the pocket, and the incision was closed with wound clips. Isoproterenol (30 mg/kg/day) was delivered by osmotic minipump for 14 days. Minipumps carrying saline were used as a control.
Transthoracic Echocardiography. Echocardiography of hearts was performed at indicated time after surgery using the VEVO 2100 high-frequency, high-resolution digital imaging system (VisualSonics) equipped with a MS400 Microscan Transducer on anesthetized mice (0.5%-2% isoflurane in 95% oxygen). Measurements were made when heart rate was >450 bpm. Cardiac function and geometry measurements were measured in parasternal short axis view. M-mode images were used for analysis and calculated by the average of at least three cardiac cycles and carried out in a blind fashion. Hearts were harvested at 12-week post-surgery for subsequent experiments and biochemical assays.
Organ weight and histological assessment. Hearts from mice were harvested, rinsed briefly in 1×PBS, blotted dry, and weighed. Lungs from the same mice were harvested, weighed, then dried at 56 C. After 72 hours the lungs were weighed again. Heart weight (HW) and Lung weight (LW) was normalized to tibia length (TL) to assess changes in hypertrophic growth and lung edema, respectively. For histology, hearts were perfusion fixed with 10% neutral buffered formalin. Longitudinal sections of hearts were stained with Masson's Trichrome for assessment of fibrosis by the University of Washington Histology and Imaging Core.

The test system of experiment [2] is heart mRNA levels (Nppa, Ctgf, mtDNA encoded genes, PPARα/RXRα target genes). The experiment is described as follows: RT-PCR of heart transcripts and mitochondrial RNA junctions. Conditions: ISO treated hearts, NR in the presence of GW6471. The experiment is classed as in vivo, mouse. As to the method: RNA Extraction and Quantitative Real-Time Polymerase Chain Reaction (RT-PCR). Total RNA was isolated from frozen heart tissue using the RNeasy fibrous Kit (Qiagen). Total RNA was reverse-transcribed into first-strand cDNA using Iscript (Bio-rad) according to manufacturer's guidelines. Real Time PCR was performed using SYBR green (Bio-Rad). Results of mRNA levels were normalized to 18S rRNA levels and reported as fold-change over control.

For the next experiment, the system named is cardiac mitochondria. The experiment is described as follows: Isolated cardiac mitochondria respiration (oxygen electrode). The experiment is classed as in vivo, mouse. Conditions: ISO treated mice, GW6471 in addition to NR. As to the method:
Mitochondrial Isolation from cardiac tissue. Hearts were excised from mice, the aortas and atria were removed. Heart tissues were rinsed briefly in ice-cold mitochondria isolation medium (MIM) (70 mM sucrose, 220 mM mannitol, 5 mM MOPS, 1 mM EDTA, 0.025% fatty acid-free BSA, pH 7.4 with 5M KOH) to remove residual blood. Tissues were minced on ice and resuspended in fresh MIM, followed by trypsin digestion (10 ug/ml) and incubated on ice for 10 min. Trypsin digestion was stopped by the addition of trypsin inhibitor (0.5 mg/ml) and additional BSA (1 mg/ml) to MIM. The tissue pellets were resuspended in fresh MIM containing 1 mg/ml BSA, and transferred to a Teflon-glass tube and homogenized on ice with a Teflon pestle. The homogenates were centrifuged for 10 min at 800×g at 4° C. The supernatants were collected and centrifuged for 10 min at 8,000×g at 4° C. The supernatant was discarded and the mitochondrial pellets were resuspended in MIM to wash. The resuspension was centrifuged for 10 min at 8,000×g at 4° C., and the supernatant discarded. The mitochondrial pellet was resuspended to a concentrated volume for protein quantification by BCA Assay (Pierce).
Mitochondrial respirations. Isolated mitochondria respiration experiments were performed in an Clark type oxygen electrode Oxytherm System (Hansatech Instruments) at 30C. Briefly, freshly isolated mitochondria were added to respiration buffer (125 mM KCl, 20 mM HEPES, 3 mM MgCl2, 400 μM EGTA, 5 mM KH2PO4, 0.2% BSA (fatty acid free), pH 7.2) and placed in the respiration chamber to measure baseline respiration (State 1). The change in oxygen levels following the immediate addition of substrates (pyruvate/malate (5 mM/2 mM) or palmitoylcarnitine/malate (50 μM/2 mM) (State 2) followed by the sequential addition of 2.5 mM ADP (State 3), […] Oligomycin (State 4p) and 1 μM FCCP (FCCP Max). Antimycin A (2.5 μM) was added last to measure the residual oxygen consumption not accounted for by the electron transfer chain and it was subtracted from the previous measurements.

In a further experiment the test system is RXRα. The experiment is described as follows: Chromatin immunoprecipitation (ChIP) of RXRα at the Acadm promoter PPRE. The experiment is classed as in vivo. As to conditions: ISO mouse hearts, NR plus GW6471. The method, then: Chromatin immunoprecipitation (ChIP). The EZ ChIP kit (EMD Millipore catalog #17-371) was used according to the manufacturer's protocol. Briefly, heart tissue was cut into small pieces using a razor blade in a petri dish on ice. The cubed tissue was incubated in fixation solution (1% formaldehye) in a conical tube and rotated at room temperature for 15 minutes to crosslink proteins and chromatin. The reaction was stopped by adding 0.125M Glycine for 5 min at room temperature. The contents were homogenized with a hand-held tissue homogenizer for 45 seconds then pelleted by centrifugation for 3 minutes at 1,250×g at 4C. The supernatant was discarded and the pellet was resuspended in 10 ml ice-cold PBS wash buffer followed by centrifugation at 1,250×g for 3 minutes. This was wash step was repeated on ice. The supernatant was discarded and the pellet resuspended in 5 ml chromatin prep buffer and incubated on ice for 10 minutes. The resuspended pellet was homogenized on ice with a dounce homogenizer for 30 strokes and then contents transferred to new conical tube on ice. The suspension was centrifuged 3 minutes at 1,250×g at 4C then supernatant discarded. The pellet was resuspended in 1 ml Chip buffer and transferred to new centrifuge tube then incubated on ice for 10 minutes. […] Purified chromatin was analyzed on a 1% agarose gel to determine the shearing efficiency. […]

Each structure is given as a SMILES string.

As for `CCC(=O)NC[C@H](Cc1ccc(OCCc2nc(-c3ccccc3)oc2C)cc1)N/C(C)=C\C(=O)c1ccc(C(F)(F)F)cc1` [GW6471], the “Protection by NR (FS %, cardiac hypertrophy)” value in experiment [1] is recorded as “blocked”. Moreover, the “PPARα/RXRα target gene expression” value in experiment [2] is recorded as “failed to preserve”. In addition, the “Restoration by NR of PLC supported State 3 respiration” value in the experiment with cardiac mitochondria is on record as “clearly blocked”. Moreover, the “NR-induced increase of RXRα binding occupancy at the Acadm PPRE” value in the experiment with RXRα was “blocked”.

These data come from US20240216412A1, “OXIDIZED NICOTINAMIDE ADENINE DINUCLEOTIDE (NAD+) PRECURSOR TREATMENT FOR HEART FAILURE ALLEVIATION INDEPENDENT OF MITOCHONDRIAL PROTEIN DEACETYLATION” (University of Washington, priority 2022, published 2024).
